# Values quoted from earlier work, collected in PubChem BioAssay AID1259409 (Chemical Carcinogenesis Research Information System (CCRIS), 2018).
# Test system: rodent chemically induced tumor inhibition, incidence and multiplicity
# Experiment: CCRIS tumor inhibitor studies
# Conditions: Dose [Inhibitor]: 0
compound,measurement,setting,value
O=c1oc2c(O)c(O)cc3c(=O)oc4c(O)c(O)cc1c4c23,"tumour outcome (control, treated, inhibition, significance)","Carcinogen: AZOXYMETHANE, 25843-45-2, 4000 PPM IN DIET BEGINNING PRIOR TO CARCINOGEN DOSE AND CONTINUING FOR DURATION OF STUDY (STUDY DURATION: 54 WK), Route [Inhibitor]: ORAL, Species: RAT, Strain/Sex: F344/MALE, Target Tissue: Type of Lesion: SMALL INTESTINE: ADENOCARCINOMA, Dose [Carcinogen]: 15 MG/KG 1/WK FOR 2 WK, Promoter: NONE USED","50%, 36%, 28%, not calculated"
same,"tumour outcome (control, treated, inhibition, significance)","Carcinogen: AZOXYMETHANE, 25843-45-2, 4000 PPM IN DIET BEGINNING PRIOR TO CARCINOGEN DOSE AND CONTINUING FOR DURATION OF STUDY (STUDY DURATION: 54 WK), Route [Inhibitor]: ORAL, Species: RAT, Strain/Sex: F344/MALE, Target Tissue: Type of Lesion: SMALL INTESTINE: ADENOMA, Dose [Carcinogen]: 15 MG/KG 1/WK FOR 2 WK, Promoter: NONE USED","3%, 0%, 100%, not calculated"
same,"tumour outcome (control, treated, inhibition, significance)","Carcinogen: AZOXYMETHANE, 25843-45-2, 4000 PPM IN DIET FOR 56 WK BEGINNING 2 WK PRIOR TO CARCINOGEN TREATMENT (STUDY DURATION: 56 WK), Route [Inhibitor]: ORAL, Species: RAT, Strain/Sex: F344/MALE, Target Tissue: Type of Lesion: COLON (DISTAL): TUMOR, Dose [Carcinogen]: 15 MG/KG 1/WK FOR 2 WK, Promoter: NONE USED","47%, 47%, 0%, not significant"
same,"tumour outcome (control, treated, inhibition, significance)","Carcinogen: AZOXYMETHANE, 25843-45-2, 4000 PPM IN DIET FOR 56 WK BEGINNING 2 WK PRIOR TO CARCINOGEN TREATMENT (STUDY DURATION: 56 WK), Route [Inhibitor]: ORAL, Species: RAT, Strain/Sex: F344/MALE, Target Tissue: Type of Lesion: COLON (PROXIMAL): TUMOR, Dose [Carcinogen]: 15 MG/KG 1/WK FOR 2 WK, Promoter: NONE","39%, 44%, -13%, not significant"
same,"tumour outcome (control, treated, inhibition, significance)","Carcinogen: AZOXYMETHANE, 25843-45-2, 8000 PPM IN DIET BEGINNING PRIOR TO CARCINOGEN DOSE AND CONTINUING FOR DURATION OF STUDY (STUDY DURATION: 54 WK), Route [Inhibitor]: ORAL, Species: RAT, Strain/Sex: F344/MALE, Target Tissue: Type of Lesion: COLON: ADENOCARCINOMA, Dose [Carcinogen]: 15 MG/KG 1/WK FOR 2 WK, Promoter: NONE USED","72%, 64%, 11%, not calculated"
same,"tumour outcome (control, treated, inhibition, significance)","Carcinogen: AZOXYMETHANE, 25843-45-2, 8000 PPM IN DIET BEGINNING PRIOR TO CARCINOGEN DOSE AND CONTINUING FOR DURATION OF STUDY (STUDY DURATION: 54 WK), Route [Inhibitor]: ORAL, Species: RAT, Strain/Sex: F344/MALE, Target Tissue: Type of Lesion: COLON: ADENOMA, Dose [Carcinogen]: 15 MG/KG 1/WK FOR 2 WK, Promoter: NONE USED","14%, 3%, 76%, not calculated"
same,"tumour outcome (control, treated, inhibition, significance)","Carcinogen: AZOXYMETHANE, 25843-45-2, 8000 PPM IN DIET BEGINNING PRIOR TO CARCINOGEN DOSE AND CONTINUING FOR DURATION OF STUDY (STUDY DURATION: 54 WK), Route [Inhibitor]: ORAL, Species: RAT, Strain/Sex: F344/MALE, Target Tissue: Type of Lesion: SMALL INTESTINE: ADENOCARCINOMA, Dose [Carcinogen]: 15 MG/KG 1/WK FOR 2 WK, Promoter: NONE USED","50%, 28%, 44%, not calculated"
same,"tumour outcome (control, treated, inhibition, significance)","Carcinogen: AZOXYMETHANE, 25843-45-2, 8000 PPM IN DIET BEGINNING PRIOR TO CARCINOGEN DOSE AND CONTINUING FOR DURATION OF STUDY (STUDY DURATION: 54 WK), Route [Inhibitor]: ORAL, Species: RAT, Strain/Sex: F344/MALE, Target Tissue: Type of Lesion: SMALL INTESTINE: ADENOMA, Dose [Carcinogen]: 15 MG/KG 1/WK FOR 2 WK, Promoter: NONE USED","3%, 0%, 100%, not calculated"
same,"tumour outcome (control, treated, inhibition, significance)","Carcinogen: AZOXYMETHANE, 25843-45-2, 8000 PPM IN DIET FOR 56 WK BEGINNING 2 WK PRIOR TO CARCINOGEN TREATMENT (STUDY DURATION: 56 WK), Route [Inhibitor]: ORAL, Species: RAT, Strain/Sex: F344/MALE, Target Tissue: Type of Lesion: COLON(DISTAL): TUMOR, Dose [Carcinogen]: 15 MG/KG 1/WK FOR 2 WK, Promoter: NONE USED","47%, 47%, 0%, not significant"
same,"tumour outcome (control, treated, inhibition, significance)","Carcinogen: AZOXYMETHANE, 25843-45-2, 8000 PPM IN DIET FOR 56 WK BEGINNING 2 WK PRIOR TO CARCINOGEN TREATMENT (STUDY DURATION: 56 WK), Route [Inhibitor]: ORAL, Species: RAT, Strain/Sex: F344/MALE, Target Tissue: Type of Lesion: COLON(PROXIMAL): TUMOR, Dose [Carcinogen]: 15 MG/KG 1/WK FOR 2 WK, Promoter: NONE USED","39%, 30%, 23%, not significant"
same,"tumour outcome (control, treated, inhibition, significance)","Carcinogen: BENZO[A]PYRENE, 50-32-8, 300 NMOL (TOTAL DOSE) APPLIED 10 MIN PRIOR TO CARCINOGEN DOSE INJECTED AS 1/7, 2/7, AND 4/7 OF THE TOTAL ON DAYS 1, 8, Route [Inhibitor]: INTRAPERITONEAL, Species: MOUSE, Strain/Sex: ICR/MALE, FEMALE, Target Tissue: Type of Lesion: LUNG: TUMOR, Dose [Carcinogen]: 450 NMOL (TOTAL DOSE) INJECTED IN DOSES OF 1/7, 2/7, AND 4/7 ON DAYS 1, 8, AND 15 OF LIFE, RESPECTIVELY, Promoter: NONE USED","74%, 75%, -1%, not significant"
